From patent publication US20230250433A1, “METHODS AND COMPOSITIONS FOR TREATMENT OF APC-DEFICIENT CANCER” (Board of Regents, The University of Texas System, priority 2020, published 2023)
One block for each compound: values may come before it.

Experiments:
[1] = test system: APC intact cells including CCD-841-CoN cells; assay: Crystal violet staining after 680C91 treatment, APC intact cells; type: cell-based, human; details: 680C91 dose-dependent, 48 hr, normal colon epithelial cells included
[2] = test system: APC-KO MC38 cells; assay: Cell death (caspase-3 assay, colony formation) with 680C91 alone and 680C91/Kyn; type: cell-based, mouse
Experimental: (§1) Normalized enrichment score (NES) and nominal P value are shown. […] The P value and R-square value are shown. […] Representative images of triplicate studies are shown. Scale bar, 100 μm. […] Dox food was applied at day 5 post-orthotopic injection to induce TDO2 knockdown in vivo (shControl, n=7, Dox, n=8, shAhR #1, #2, n=7). ***P<0.001. two-tailed t-test.
(§2) To assess the roles of TDO2-Kyn-AhR axis in cancer relevant processes, colony formation assays were performed using the APC-KO MC38 ishTDO2 cell lines and APC-KO MC38 shAhR cell lines. […] Thus, the TDO2-Kyn-Ahr axis supports APC-null cancer cell proliferation and survival and its tumorigenic potential.
(§3) Cell lysates were prepared with RIPA lysis buffer (Roche) with protease inhibitor […] Immunoblotting was performed following standard protocol. Antibodies were purchased from the indicated companies.
(§4) Colorectal cancer cell proliferation in vitro was assayed through colony formation. 1×10^3 cells were seeded in each well of 6-well plates and cultured for 5-7 days. At the end point, cells were fixed and stained with 0.5% crystal violet in 25% methanol for 1 hr. These studies were performed in triplicate.

[3] = test system: APC deficient cell lines; assay: Crystal violet staining after 680C91 treatment, APC deficient cell lines; type: cell-based, human; details: 680C91 dose-dependent, 48 hr
[4] = test system: APC-WT and APC-KO MC38 cell lines; assay: Crystal violet staining of APC-WT and APC-KO MC38 cell lines after 680C91; type: cell-based, mouse; details: APC-KO vs APC-WT MC38, dose-dependent, 48 hr
[5] = test system: Raw264.7; assay: Transwell migration assay of macrophages in conditioned media; type: cell-based, mouse; details: co-treatment with CXCL5; SX-682 1 μM, 36 hr
Experimental: Two-way ANOVA analysis. […] Dox food was applied at day 5 post-orthotopic injection to induce TDO2 knockdown in vivo. n=4 per group. n.s.P>0.05, *P<0.05, […], ****P<0.0001. two-tailed t-test. […] FIGS. 12D and 12E show quantification of macrophages (F4/80+; FIG. 12D) and M2 macrophages (CD206+; FIG. 12E) in tumors shown in FIG. 12C. CyTOF data analyzed by FlowJo. Data represent mean±s.d., n=3 per group. *P<0.05, **P<0.01. two-tailed t-test. […] Recombinant CXCL5 protein (50 ng) and SX-682 (1 μM) were added to harvested condition media for 36 hr. Scale bar, 100 μm. n=3 biological replicates. Quantification is shown in lower panel. n.s. P>0.05, ***P<0.001, ****P<0.0001. two-tailed t-test. […] Clondronate liposomes or control encapsome liposomes were given intraperitoneally (100 μl) at day 2 post-orthotopic injection and three times a week. […]
Macrophages (1×10^4 for Raw264.7 and BMDM) were suspended in serum-free culture medium and seeded into 24-well Transwell inserts ([…]). […] After 24 h, the migrated macrophages were fixed and stained with crystal violet (0.05%, sigma), and then counted as cells per field of view under microscope or measured as OD590 nm (expressed as migration index) after crystal violet was dissolved.

[6] = test system: APC-WT MC38 orthotopic tumors; assay: Survival of C57BL/6J mice orthotopically implanted with APC-WT MC38 cells; type: in vivo, mouse; details: 100 mg/kg twice a day by oral gavage from day 5 post-injection
Excerpt: (§5) Induction of shTDO2 is indicated by GFP (highlighted with arrows). X63 magnification. […] Dox food was provided at day 5 after injection to induced TDO2 knockdown in vivo (n=5 per group). […] Scale bar, 100μm. […] Dox food was applied at day 5 post-orthotopic injection to induce TDO2 knockdown in vivo (ishTDO2 APC-WT MC38, n=5, ishTDO2 APC-WT+Dox MC38 and ishTDO2 APC-KO MC38, n=6, ishTDO2 APC-KO MC38+Dox, n=7). n.s.P>0.05, **P<0.01, ***P<0.001. two-tailed t-test. […] Dox food was applied at day 5 post-orthotopic injection to induce TDO2 knockdown in vivo (n=8 per group). n.s.P>0.05, **P<0.01, ***P<0.001. two-tailed t-test. FIGS. 4N and 4O show survival curves of C57BL/6J mice orthotopically implanted with APC-WT and APC-KO MC38 cell lines ([…]) treated with TDO2 inhibitor (FIG. 4N) or Epacadostat (FIG. 4O). TDO2 inhibitor and Epacadostat treatment (100 mg/kg) was initiated at day 5 post-injection twice a day by oral gavage. n.s.P>0.05, *P<0.05, ***P<0.001. Log-rank (Mantel-Cox) test. […] Scale bars, ×10 (200 μm).
(§6) The inventors synthesized the TDO2 inhibitor PF06845102/EOS200809 (“TDO2i”), which has been documented to inhibit TDO2 activity in vivo (Schramme et al., Cancer Immunol Res. 2020 January; 8(1):32-45; incorporated herein by reference in its entirety) and administrated the drug by oral gavage to mice bearing APC-WT or APC-KO MC38 orthotopic tumors. […]

[7] = test system: APC-KO MC38 orthotopic tumors; assay: Survival of C57BL/6J mice orthotopically implanted with APC-KO MC38 cells; type: in vivo, mouse; details: 100 mg/kg twice a day by oral gavage from day 5 post-injection
Excerpt: as §5, §6

[8] = test system: APC-KO MC38 cells; assay: Colony formation assay of TDO2- or AhR-depleted cells with Kyn; type: cell-based, mouse; details: Dox/Kyn co-treatment
Experimental: as §1, §2, §4

[9] = test system: iKAP cell lysates; assay: Cleaved Caspase-3 immunoblot in iKAP cells, 680C91 alone and 680C91/Kyn; type: cell-based, mouse; details: 680C91/Kyn vs 680C91 alone
Experimental: as §1, §2, §3

[10] = test system: BMDM; assay: RT-qPCR analysis of Gas6 expression in BMDM; type: cell-based, mouse; details: Kyn 1 mM, CXCL5 50 ng, Gas6 25 ng, 24 hr
Experimental: (§7) The red box indicates Axl. […] Six replicates per group. two-tailed t-test. *P<0.05. […] Epithelial cells are stained with EpCam and indicated by GFP. X63 magnification. […] Total flux measurement of at the end point. **P<0.01. two-tailed t-test. […] Total flux measurement of tumors was done at the end point. **P<0.01. two-tailed t-test.
To evaluate whether secreted factors from cancer cells might upregulate Gas6 expression in macrophages, BMDMs were incubated with conditioned media from MC38 cell lines. […] (FIG. 15H). Finally, to validate the roles of Gas6 in promoting tumor growth in vivo, CT26 cell lines and two independent Raw 264.7 shGas6 cell lines were co-injected into syngeneic Balb/CJ mice (FIG. 15I).
(§8) RNA was isolated from cells using Trizol (Invitrogen) following the manufacturer's instructions. RNA (200-500 ng) was first treated with RNase-free DNase I using the DNA-free kit (Ambion) to remove all genomic DNA, and then reverse-transcribed into cDNA using an ABI High Capacity cDNA RT Kit (Invitrogen). The cDNA was analyzed using real-time quantitative PCR (SYBR Green, Invitrogen) with an Applied Biosystems 7900 Sequence Detection System. Each reaction was performed in triplicate. The expression of each gene was normalized by that of mouse Actin or human GAPDH.

[11] = test system: BMDM; assay: RT-qPCR of M2 macrophage signature genes in BMDM; type: cell-based, mouse; details: CXCL5 50 ng, Kyn 1 mM, 24 hr
Experimental: Scale bars, 50μm. […] Scale bars, 100 μm. […] (isTDO2 and isTDO2/shCXCL5 #2 groups, n=7, isTDO2/shCXCL5 #3, n=8). ****P<0.0001. two-tailed t-test. […] (shControl and shCXCL5 #2 groups, n=7, shCXCL5 #3, n=8). ****P<0.0001. two-tailed t-test.
as §8

[12] = test system: APC-WT and APC-KO MC38 cells; assay: Cell viability assay with STF-31; type: cell-based, mouse; details: STF-31 24 hr, dose-dependent
[13] = test system: Caco-2, DLD-1, and HCT-15 cell lines; assay: Immunoblot for TDO2 and β-catenin in CRC cell lines treated with XAV-939; type: cell-based, human; details: XAV-939 in a dose-dependent manner; WNT activity indicated by reduced level of β-catenin
Experimental: The motif sequence is conserved in human and mouse genes. […] GAPDH as a negative control and MYC and AXIN2 as positive controls. […] FIGS. 3K-3M show immunoblot for TDO2 and β-catenin in DLD-1 cells (FIG. 3K), Caco-2 cells (FIG. 3L), and HCT-15 cells (FIG. 3M) treated with XAV-939 in a dose-dependent manner.
Thus, APC loss induced activation of the WNT-betacatenin-TCF4 pathway resulting in TCF4-mediated upregulation of TDO2 gene transcription.
as §3

[14] = test system: LS180 and HT-29 cell lines; assay: Colony formation assay with Gas6 and R428; type: cell-based, human; details: Gas6 25 ng, 36 hr
Excerpt: as §7
(§9) Gas6 is a ligand of Axl and is secreted mainly by tumor-associated macrophages in the TME (Loges et al., 2010), raising the possibility that macrophage-derived Gas6 might activate Axl to support the growth of APC-deficient cancer cells.
as §4

[15] = target: T1, Axl (Mus musculus, UniProt Q00993); assay: Immunoblots for Axl and phospho-Axl; type: cell-based; details: APC-WT and APC-KO MC38 cells; R428 0.2 μM 24 h; rmGAS6 24 h
T1 construct: immunoblots for Axl and phospho-Axl in APC-WT and APC-KO MC38 cells after R428 treatment (0.2 μM, 24 h); endogenous in cells; host or cells: MC38 mouse colorectal cancer cells, APC-WT and isogenic APC-KO
T1 sequence (Q00993 19-888): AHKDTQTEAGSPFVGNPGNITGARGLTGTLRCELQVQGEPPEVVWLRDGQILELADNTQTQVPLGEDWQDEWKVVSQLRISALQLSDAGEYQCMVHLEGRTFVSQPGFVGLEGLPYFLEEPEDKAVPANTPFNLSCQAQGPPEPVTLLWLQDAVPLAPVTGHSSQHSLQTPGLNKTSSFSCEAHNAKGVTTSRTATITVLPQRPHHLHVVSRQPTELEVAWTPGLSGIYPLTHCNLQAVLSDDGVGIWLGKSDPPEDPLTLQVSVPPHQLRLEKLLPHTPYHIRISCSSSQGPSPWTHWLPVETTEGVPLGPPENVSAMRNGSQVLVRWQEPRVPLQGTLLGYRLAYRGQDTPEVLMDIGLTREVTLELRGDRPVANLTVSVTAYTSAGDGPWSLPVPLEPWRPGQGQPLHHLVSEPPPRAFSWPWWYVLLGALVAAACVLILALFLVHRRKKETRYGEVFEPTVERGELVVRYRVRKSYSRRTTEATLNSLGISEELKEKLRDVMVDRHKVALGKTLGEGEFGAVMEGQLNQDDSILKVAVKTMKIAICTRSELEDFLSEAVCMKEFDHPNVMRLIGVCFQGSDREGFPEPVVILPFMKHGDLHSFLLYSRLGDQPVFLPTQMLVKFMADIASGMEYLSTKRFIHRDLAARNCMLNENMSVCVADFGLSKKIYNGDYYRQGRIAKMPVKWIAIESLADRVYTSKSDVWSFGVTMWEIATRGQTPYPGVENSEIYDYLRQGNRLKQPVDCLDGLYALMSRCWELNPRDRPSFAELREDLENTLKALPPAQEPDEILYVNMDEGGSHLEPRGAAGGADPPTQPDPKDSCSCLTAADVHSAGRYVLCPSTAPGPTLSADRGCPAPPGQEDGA
Excerpt: as §7, §9, §3

Compound: Fc1ccc2c(/C=C/c3cccnc3)c[nH]c2c1 [680C91]
growth and survival [1]: but not APC intact cells
cell death indicated by caspase-3 assay ([2]; 680C91 alone): increased cell death
growth and survival [3]: impaired the growth and survival
sensitivity of APC depleted cells to TDO2 inhibition [4]: higher sensitivity to TDO2 inhibition

Compound: O=C(Nc1ccc(F)cc1)c1cnc(SCc2cc(OC(F)(F)F)ccc2B(O)O)nc1 [CXCR1/2 inhibitor]
effect on CXCL5 rescue of macrophage recruitment [5]: abrogated the rescue by CXCL5 supplementation

Compound: NS(=O)(=O)NCCNc1nonc1C(=NO)Nc1ccc(F)c(Br)c1 [Epacadostat]
survival of mice bearing APC-WT MC38 tumors [6]: did not exhibit anti-tumor effects
survival of mice bearing APC-KO MC38 tumors [7]: did not exhibit anti-tumor effects

Compound: Nc1ccccc1C(=O)CC(N)C(=O)O (centres unmarked) [Kyn, kynurenine]
effect of Kyn on reduced colony formation after TDO2 and AhR depletion [8]: rescued by Kyn treatment
effect of Kyn on 680C91-induced cell death ([2]; 680C91/Kyn co-treatment): rescued by Kyn supplementation
cell death in iKAP model system [9]: decreased cell death
Gas6 expression [10]: increased Gas6 expression
M2 macrophage markers [11]: M2 macrophage markers increased

Compound: CC(C)(C)c1ccc(S(=O)(=O)NCc2ccc(C(=O)Nc3cccnc3)cc2)cc1 [STF-31]
sensitivity of APC-KO vs APC-WT MC38 cells [12]: higher sensitivity

Compound: Oc1nc(-c2ccc(C(F)(F)F)cc2)nc2c1CSCC2 [XAV-939]
TDO2 expression [13]: TDO2 expression was decreased

Axl phosphorylation [15]: activated Axl
Compound: rmGas6: mouse recombinant Gas6, ligand of Axl
cancer cell growth in vitro [14]: promoted cancer cell growth
Gas6 expression [10]: increased Gas6 expression
